Laboratory results: ChEMBL document CHEMBL1275550, “In vitro activity of doripenem, a carbapenem for the treatment of challenging infections caused by gram-negative bacteria, against recent clinical isolates from the United States” (2008)
≈ marks a conversion by molar mass, not a printed value.

Key:
[1] = system: Enterobacteriaceae; assay: Antimicrobial activity against Enterobacteriaceae by broth microdilution method; type: functional
[2] = system: Enterobacteriaceae; assay: Antimicrobial activity against ceftazidime-susceptible Enterobacteriaceae by broth microdilution method; type: functional
[3] = system: Enterobacteriaceae; assay: Antimicrobial activity against Enterobacteriaceae assessed as susceptible isolate by broth microdilution method; type: functional
[4] = system: Enterobacteriaceae; assay: Antimicrobial activity against ceftazidime-susceptible Enterobacteriaceae assessed as susceptible isolate by broth microdilution method; type: functional
[5] = system: Enterobacteriaceae; assay: Antimicrobial activity against ceftazidime-susceptible Enterobacteriaceae assessed as intermediate isolate by broth microdilution method; type: functional
[6] = system: Enterobacteriaceae; assay: Antimicrobial activity against ceftazidime-susceptible Enterobacteriaceae assessed as resistant isolate by broth microdilution method; type: functional
[7] = system: Enterobacteriaceae; assay: Antimicrobial activity against Ceftazidime non-susceptible Enterobacteriaceae assessed as intermediate isolate by broth microdilution method; type: functional
[8] = system: Escherichia coli; assay: Antimicrobial activity against Non-ESBL Escherichia coli assessed as susceptible isolate by broth microdilution method; type: functional
[9] = system: Escherichia coli; assay: Antimicrobial activity against ESBL producing Escherichia coli assessed as susceptible isolate by broth microdilution method; type: functional
[10] = system: Klebsiella pneumoniae; assay: Antimicrobial activity against Klebsiella pneumoniae by broth microdilution method; type: functional
[11] = system: Klebsiella pneumoniae; assay: Antimicrobial activity against ESBL producing Klebsiella pneumoniae by broth microdilution method; type: functional
[12] = system: Klebsiella pneumoniae; assay: Antimicrobial activity against ESBL producing Klebsiella pneumoniae assessed as intermediate isolate by broth microdilution method; type: functional
[13] = system: Proteus mirabilis; assay: Antimicrobial activity against Non-ESBL Proteus mirabilis by broth microdilution method; type: functional
[14] = system: Proteus mirabilis; assay: Antimicrobial activity against ESBL producing Proteus mirabilis by broth microdilution method; type: functional
[15] = system: Proteus mirabilis; assay: Antimicrobial activity against Proteus mirabilis assessed as susceptible isolate by broth microdilution method; type: functional
[16] = system: Pseudomonas aeruginosa; assay: Antimicrobial activity against Pseudomonas aeruginosa isolated from non-ICU patient by broth microdilution method; type: functional
[17] = system: Pseudomonas aeruginosa; assay: Antimicrobial activity against Pseudomonas aeruginosa isolated from ICU patient by broth microdilution method; type: functional
[18] = system: Proteus mirabilis; assay: Antimicrobial activity against Non-ESBL Proteus mirabilis assessed as susceptible isolate by broth microdilution method; type: functional
[19] = system: Proteus mirabilis; assay: Antimicrobial activity against ESBL producing Proteus mirabilis assessed as susceptible isolate by broth microdilution method; type: functional
[20] = system: Enterobacter cloacae; assay: Antimicrobial activity against Enterobacter cloacae with nonderepressed AmpC beta-lactamsae by broth microdilution method; type: functional
[21] = system: Enterobacter cloacae; assay: Antimicrobial activity against Enterobacter cloacae with derepressed AmpC beta-lactamsae by broth microdilution method; type: functional
[22] = system: Enterobacter cloacae; assay: Antimicrobial activity against Enterobacter cloacae assessed as susceptible isolate by broth microdilution method; type: functional
[23] = system: Enterobacter cloacae; assay: Antimicrobial activity against Enterobacter cloacae with nonderepressed AmpC beta-lactamsae assessed as intermediate isolate by broth microdilution method; type: functional
[24] = system: Enterobacter cloacae; assay: Antimicrobial activity against Enterobacter cloacae with derepressed AmpC beta-lactamsae assessed as susceptible isolate by broth microdilution method; type: functional
[25] = system: Citrobacter; assay: Antimicrobial activity against Citrobacter by broth microdilution method; type: functional
[26] = system: Citrobacter; assay: Antimicrobial activity against Citrobacter with derepressed AmpC beta-lactamsae by broth microdilution method; type: functional
[27] = system: Citrobacter; assay: Antimicrobial activity against Citrobacter assessed as susceptible isolate by broth microdilution method; type: functional
[28] = system: Citrobacter; assay: Antimicrobial activity against Citrobacter with derepressed AmpC beta-lactamsae assessed as susceptible isolate by broth microdilution method; type: functional
[29] = system: Citrobacter; assay: Antimicrobial activity against Citrobacter with derepressed AmpC beta-lactamsae assessed as intermediate isolate by broth microdilution method; type: functional
[30] = system: Serratia marcescens; assay: Antimicrobial activity against Ceftazidime susceptible Serratia marcescens by broth microdilution method; type: functional
[31] = system: Serratia marcescens; assay: Antimicrobial activity against Serratia marcescens assessed as susceptible isolate by broth microdilution method; type: functional
[32] = system: Serratia marcescens; assay: Antimicrobial activity against Ceftazidime susceptible Serratia marcescens assessed as susceptible isolate by broth microdilution method; type: functional
[33] = system: Serratia marcescens; assay: Antimicrobial activity against Ceftazidime non-susceptible Serratia marcescens assessed as susceptible isolate by broth microdilution method; type: functional
[34] = system: Pseudomonas aeruginosa; assay: Antimicrobial activity against Pseudomonas aeruginosa by broth microdilution method; type: functional
[35] = system: Pseudomonas aeruginosa; assay: Antimicrobial activity against Ceftazidime susceptible Pseudomonas aeruginosa by broth microdilution method; type: functional
[36] = system: Pseudomonas aeruginosa; assay: Antimicrobial activity against imipenem susceptible Pseudomonas aeruginosa by broth microdilution method; type: functional
[37] = system: Pseudomonas aeruginosa; assay: Antimicrobial activity against imipenem non-susceptible Pseudomonas aeruginosa by broth microdilution method; type: functional
[38] = system: Pseudomonas aeruginosa; assay: Antimicrobial activity against Pseudomonas aeruginosa assessed as susceptible isolate by broth microdilution method; type: functional
[39] = system: Pseudomonas aeruginosa; assay: Antimicrobial activity against Ceftazidime susceptible Pseudomonas aeruginosa assessed as intermediate isolate by broth microdilution method; type: functional
[40] = system: Pseudomonas aeruginosa; assay: Antimicrobial activity against Ceftazidime susceptible Pseudomonas aeruginosa assessed as resistant isolate by broth microdilution method; type: functional
[41] = system: Pseudomonas aeruginosa; assay: Antimicrobial activity against Ceftazidime non-susceptible Pseudomonas aeruginosa assessed as susceptible isolate by broth microdilution method; type: functional
[42] = system: Pseudomonas aeruginosa; assay: Antimicrobial activity against Ceftazidime non-susceptible Pseudomonas aeruginosa assessed as intermediate isolate by broth microdilution method; type: functional
[43] = system: Pseudomonas aeruginosa; assay: Antimicrobial activity against Ceftazidime non-susceptible Pseudomonas aeruginosa assessed as resistant isolate by broth microdilution method; type: functional
[44] = system: Pseudomonas aeruginosa; assay: Antimicrobial activity against imipenem susceptible Pseudomonas aeruginosa assessed as susceptible isolate by broth microdilution method; type: functional
[45] = system: Pseudomonas aeruginosa; assay: Antimicrobial activity against imipenem susceptible Pseudomonas aeruginosa assessed as intermediate isolate by broth microdilution method; type: functional
[46] = system: Pseudomonas aeruginosa; assay: Antimicrobial activity against imipenem non-susceptible Pseudomonas aeruginosa assessed as susceptible isolate by broth microdilution method; type: functional
[47] = system: Pseudomonas aeruginosa; assay: Antimicrobial activity against imipenem non-susceptible Pseudomonas aeruginosa assessed as intermediate isolate by broth microdilution method; type: functional
[48] = system: Acinetobacter; assay: Antimicrobial activity against Acinetobacter by broth microdilution method; type: functional
[49] = system: Acinetobacter; assay: Antimicrobial activity against imipenem non-susceptible Acinetobacter assessed as resistant isolate by broth microdilution method; type: functional
[50] = system: Staphylococcus aureus; assay: Antimicrobial activity against methicillin-susceptible Staphylococcus aureus by broth microdilution method; type: functional; conditions: Staphylococcus aureus
[51] = system: Streptococcus pneumoniae; assay: Antimicrobial activity against penicillin-resistant Streptococcus pneumoniae by broth microdilution method; type: functional; conditions: Streptococcus pneumoniae
[52] = system: Pseudomonas aeruginosa; assay: Antimicrobial activity against Pseudomonas aeruginosa isolated from patient by broth microdilution method
[53] = system: Pseudomonas aeruginosa; assay: Antimicrobial activity against Pseudomonas aeruginosa isolated from non-ICU patient by broth microdilution method
[54] = system: Pseudomonas aeruginosa; assay: Antimicrobial activity against Pseudomonas aeruginosa isolated from ICU patient assessed as resistant isolate by broth microdilution method

Structure (SMILES): C[C@@H](O)[C@H]1C(=O)N2C(C(=O)O)=C(SCCNC=N)C[C@H]12 [IMIPENEM ANHYDROUS]
- MIC50 [1]: 0.5 µg/mL (≈ 1.67 µM)
- MIC90 [1]: 2 µg/mL (≈ 6.68 µM)
- MIC50 [2]: 0.5 µg/mL (≈ 1.67 µM)
- MIC90 [2]: 2 µg/mL (≈ 6.68 µM)
- Activity [3]: 99.4%
- Activity [4]: 99.6%
- Activity [5]: 0.3%
- Activity [6]: 0.1%
- Activity [7]: 1.7%
- Activity [8]: 100%
- Activity [9]: 100%
- MIC50 [10]: 0.5 µg/mL (≈ 1.67 µM)
- MIC90 [10]: 1 µg/mL (≈ 3.34 µM)
- MIC50 [11]: 0.5 µg/mL (≈ 1.67 µM)
- MIC90 [11]: 1 µg/mL (≈ 3.34 µM)
- Activity [12]: 2.3%
- MIC50 [13]: 2 µg/mL (≈ 6.68 µM)
- MIC90 [13]: 4 µg/mL (≈ 13.4 µM)
- MIC [14]: 0.5 µg/mL (≈ 1.67 µM)
- Activity [15]: 97.3%
- MIC50 [16]: 4 µg/mL (≈ 13.4 µM)
- MIC90 [16]: 32 µg/mL (≈ 107 µM)
- MIC50 [17]: 4 µg/mL (≈ 13.4 µM)
- MIC90 [17]: 32 µg/mL (≈ 107 µM)
- Activity [18]: 97.3%
- Activity [19]: 100%
- MIC50 [20]: 1 µg/mL (≈ 3.34 µM)
- MIC90 [20]: 2 µg/mL (≈ 6.68 µM)
- MIC50 [21]: 1 µg/mL (≈ 3.34 µM)
- MIC90 [21]: 2 µg/mL (≈ 6.68 µM)
- Activity [22]: 99.6%
- Activity [23]: 0.5%
- Activity [24]: 100%
- MIC50 [25]: 1 µg/mL (≈ 3.34 µM)
- MIC90 [25]: 2 µg/mL (≈ 6.68 µM)
- MIC50 [26]: 1 µg/mL (≈ 3.34 µM)
- MIC90 [26]: 2 µg/mL (≈ 6.68 µM)
- Activity [27]: 99.8%
- Activity [28]: 100%
- Activity [29]: 0%
- MIC50 [30]: 2 µg/mL (≈ 6.68 µM)
- MIC90 [30]: 4 µg/mL (≈ 13.4 µM)
- Activity [31]: 98.9%
- Activity [32]: 98.9%
- Activity [33]: 100%
- MIC50 [34]: 4 µg/mL (≈ 13.4 µM)
- MIC90 [34]: 32 µg/mL (≈ 107 µM)
- MIC50 [35]: 4 µg/mL (≈ 13.4 µM)
- MIC90 [35]: 16 µg/mL (≈ 53.4 µM)
- MIC50 [36]: 2 µg/mL (≈ 6.68 µM)
- MIC90 [36]: 4 µg/mL (≈ 13.4 µM)
- MIC50 [37]: 16 µg/mL (≈ 53.4 µM)
- MIC90 [37]: > 32 µg/mL
- Activity [38]: 76.3%
- Activity [39]: 7.6%
- Activity [40]: 13.1%
- Activity [41]: 55.5%
- Activity [42]: 8.2%
- Activity [43]: 36.4%
- Activity [44]: 100%
- Activity [45]: 0%
- Activity [46]: 0%
- Activity [47]: 32.4%
- MIC50 [48]: 1 µg/mL (≈ 3.34 µM)
- MIC90 [48]: > 32 µg/mL
- Activity [49]: 96.1%
- MIC50 ([50]; read-out: MIC50): 0.03 µg/mL (≈ 0.1 µM)
- MIC90 ([50]; read-out: MIC90): 0.03 µg/mL (≈ 0.1 µM)
- MIC50 ([51]; read-out: MIC50): 0.5 µg/mL (≈ 1.67 µM)
- MIC90 ([51]; read-out: MIC90): 1 µg/mL (≈ 3.34 µM)
- Activity [52]: 7.9%
- Activity [53]: 74.9%
- Activity [54]: 26.6%
